The test addresses T1, APT2 (Homo sapiens, UniProt O95372).
T1 construct: treated with LYPLA2 siRNA or 20 μM of ML349 for 36 h before Alk14 labelling; endogenous in cells; host or cells: DHHC7-knockout HEK293T cells re-expressing HA-DHHC7 and Flag-STAT3
The experiment in a line: STAT3 palmitoylation by Alk14 labelling and in-gel fluorescence after APT2 inhibition or knockdown. Particulars: DHHC7-knockout HEK293T cells reintroduced with HA-DHHC7 and Flag-STAT3; LYPLA2 siRNA or 20 μM of ML349 for 36 h. The format is cell-based. From the text:
FIGS. 2A-2H. APT2 is a depalmitoylase of STAT3 and palmitoylation/depalmitoylation promotes p-STAT3 nuclear localization. (A) C108 is the major palmitoylation site of STAT3. HEK293T cells were transfected with HA-DHHC7 and Flag-STAT3 (wild-type or mutants) and labelled with Alk14. STAT3 was pulled down and subjected to Alk14 labelling and western blot analyses. (B) Left, distribution of wild-type or C108S mutants of STAT3 and p-STAT3 in the subcellular fractions of DHHC7-knockout HEK293T cells into which DHHC7 or DHHS7 were reintroduced. Right, quantification of the relative p-STAT3 levels. (C) The subcellular localization of STAT3 and p-STAT3 was analysed using confocal imaging after different EGFP-STAT3 constructs and HA-tagged DHHC7 were transfected into DHHC7-knockout HEK293T cells. […] (D) In HEK293T cells, overexpression of wild-type APT2—but not the C2S or S122A mutants—decreased the palmitoylation level of Flag-STAT3 as determined by Alk14 labelling. […] The palmitoylation of STAT3 was determined by in-gel fluorescence (left) and quantified (right). […] DHHC7-knockout HEK293T cells were reintroduced with HA-DHHC7 and Flag-STAT3, and treated with LYPLA2 siRNA or 20 μM of ML349 for 36 h before Alk14 labelling and in-gel fluorescence detection. […] Right, quantification of the relative STAT3 and p-STAT3 levels in these fractions. […] Right, quantification of the relative STAT3 levels in these fractions. […]

T1 sequence (O95372 whole entry): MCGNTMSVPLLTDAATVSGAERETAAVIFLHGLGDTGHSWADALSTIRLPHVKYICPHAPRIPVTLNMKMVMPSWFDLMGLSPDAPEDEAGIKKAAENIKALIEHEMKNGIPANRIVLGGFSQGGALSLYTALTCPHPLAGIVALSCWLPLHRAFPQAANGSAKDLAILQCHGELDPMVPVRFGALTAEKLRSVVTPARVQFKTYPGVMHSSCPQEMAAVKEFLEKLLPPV

Turning to `COc1ccc(N2CCN(C(=O)c3cc4c(s3)-c3ccccc3S(=O)(=O)C4)CC2)cc1` [ML349], the STAT3 palmitoylation result is on record as “increased STAT3 palmitoylation”.

Values taken from US20230159931A1, “TARGETING THE PALMOTYLATION/DEPALMOTYLATION CYCLE TO TREAT INFLAMMATORY DISEASES” (CORNELL UNIVERSITY, priority 2020, published 2023).
